Results as given in patent US7138361B2, “Herbicidal heterocycles” (E. I. du Pont de Nemours and Company, priority 2000, dated 2006).

What was measured:
Format in all cases: in vivo
[1] = system: pigweed (Amaranthus retroflexus); test: Test B postemergence; details: 13 to 15 days
Procedure, shortened: (§1)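 Pre: seeded pots sprayed, chemical in non-phytotoxic solvent/surfactant mix. Post: plants 2–18 cm, 1–4 leaf, same formulation. Greenhouse 13–15 d; visual % control vs untreated, 0–100 scale.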

[2] = system: lambsquarters (Chenopodium album); test: Test B postemergence; details: 13 to 15 days
Procedure, shortened: as §1

[3] = system: cocklebur (Xanthium strumarium); test: Test B postemergence; details: 13 to 15 days
Procedure, shortened: as §1

[4] = system: crabgrass (Digitaria sanguinalis); test: Test B postemergence; details: 13 to 15 days
Procedure, shortened: as §1

[5] = system: blackgrass (Alopecurus myosuroides); test: Test B postemergence; details: 13 to 15 days
Procedure, shortened: as §1

[6] = system: velvetleaf (Abutilon theophrasti); test: Test B postemergence; details: 13 to 15 days
Procedure, shortened: as §1

[7] = system: giant foxtail (Setaria faberii); test: Test B postemergence; details: 13 to 15 days
Procedure, shortened: as §1

wild oat (Avena fatua) = test: Test B postemergence; details: 13 to 15 days
Procedure, shortened: as §1

corn (Zea mays) [8] = test: Test B postemergence; details: 13 to 15 days
Procedure, shortened: as §1

[9] = system: Surinam grass (Brachiaria decumbens); test: Test B postemergence; details: 13 to 15 days
Procedure, shortened: as §1

[10] = system: morning glory (Ipomoea hederacea); test: Test B postemergence; details: 13 to 15 days
Procedure, shortened: as §1

[11] = system: wheat (Triticum aestivum); test: Test B postemergence; details: 13 to 15 days
Procedure, shortened: as §1

[12] = system: barnyardgrass (Echinochloa crus-galli); test: Test B postemergence; details: 13 to 15 days
Procedure, shortened: as §1

[13] = system: smallflower flatsedge (Cyperus difformis); test: Test C flooded paddy test; details: for Flatsedge plant response rating: Flooded Paddy, scale 0 to 100, 0 no effect, 100 complete control; for Plant response rating, Flatsedge: flooded paddy test, scale 0 to 100 (0 no effect, 100 complete control)
Procedure, shortened: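 Plants were grown to the 2-leaf stage under flooded paddy conditions and treated. They were then kept in a greenhouse for 12 to 14 days and visually rated against untreated controls on a 0–100 scale, where 0 is no effect and 100 is complete control.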

Sunflower [14] = test: Test C preemergence; details: visual evaluation after 12 to 14 days
[15] = system: pigweed (Amaranthus retroflexus); test: Test B preemergence
Procedure, shortened: as §1

rice (Oryza saliva) = test: Test B preemergence
Procedure, shortened: as §1

[16] = system: cocklebur (Xanthium strumarium); test: Test B preemergence
Procedure, shortened: as §1

[17] = system: crabgrass (Digitaria sanguinalis); test: Test B preemergence
Procedure, shortened: as §1

[18] = system: velvetleaf (Abutilon theophrasti); test: Test B preemergence
Procedure, shortened: as §1

[19] = system: giant foxtail (Setaria faberii); test: Test B preemergence
Procedure, shortened: as §1

corn (Zea mays) [20] = test: Test B preemergence
Procedure, shortened: as §1

[21] = system: Surinam grass (Brachiaria decumbens); test: Test B preemergence
Procedure, shortened: as §1

[22] = system: morning glory (Ipomoea hederacea); test: Test B preemergence
Procedure, shortened: as §1

[23] = system: barnyardgrass (Echinochloa crus-galli); test: Test B preemergence
Procedure, shortened: as §1

Sunflower [24] = test: Test C preemergence; details: scale 0 to 100, 0 no effect, 100 complete control
[25] = system: lambsquarters (Chenopodium album); test: Test B preemergence
Procedure, shortened: as §1

[26] = Rate 125 g/ha, scale 0 (no effect) to 100 (complete control)
[27] = Rate 500 g/ha, scale 0 to 100, 0 is no effect, 100 is complete control
[28] = Preemergence, Rate 500 g/ha, scale 0 to 100, 0 no effect, 100 complete control
[29] = preemergence, Rate 125 g/ha, scale 0 to 100, 0 no effect, 100 complete control
[30] = preemergence, Rate 125 g/ha, scale of 0 to 100 where 0 is no effect and 100 is complete control, 13 to 15 days

CCC(C)c1ccn(C2SCN(c3cccc(C(F)(F)F)c3)C2=O)n1 (stereo not drawn) [Compound 20]
Plant response rating, Pigweed [1, 26]: 90 | Plant response rating, Pigweed [1, 27]: 90 | Plant response rating, Lambsquarters [2, 26]: 90 | Plant response rating, Lambsquarters [2, 27]: 90 | Plant response rating, Cocklebur [3, 26]: 80 | Plant response rating, Cocklebur [3, 27]: 90 | Plant response rating, Crabgrass [4, 26]: 20 | Plant response rating, Crabgrass [4, 27]: 80 | Plant response rating, Blackgrass [5, 26]: 0 | Plant response rating, Blackgrass [5, 27]: 0 | Plant response rating, Velvetleaf [6, 26]: 10 | Plant response rating, Velvetleaf [6, 27]: 20 | Plant response rating, Foxtail, Giant [7, 26]: 50 | Plant response rating, Foxtail, Giant [7, 27]: 90 | Plant response rating, Wild Oat (wild oat (Avena fatua); [26]): 0 | Plant response rating, Wild Oat (wild oat (Avena fatua); [27]): 0 | Plant response rating, Corn (corn (Zea mays) [8]; [26]): 0 | Plant response rating, Corn (corn (Zea mays) [8]; [27]): 20 | Plant response rating, Surinam grass [9, 26]: 0 | Plant response rating, Surinam grass [9, 27]: 0 | Plant response rating, Morningglory [10, 26]: 60 | Plant response rating, Morningglory [10, 27]: 60 | Plant response rating, Wheat [11, 26]: 0 | Plant response rating, Wheat [11, 27]: 0 | Plant response rating, Barnyardgrass [12, 26]: 60 | Plant response rating, Barnyardgrass [12, 27]: 100 | Flatsedge plant response rating ([13]; Rate 250 g/ha): 100 | Flatsedge plant response rating ([13]; Rate 500 g/ha): 100 | Plant response rating, Flatsedge ([13]; Rate 62 g/ha): 90 | Plant response rating, Flatsedge ([13]; Rate 125 g/ha): 100 | Plant response rating (0 to 100), Sunflower (Sunflower [14]; Rate 250 g/ha): 60 | Plant response rating, Pigweed [15, 28]: 100 | Plant response rating, Pigweed [15, 29]: 0 | Plant response rating, Rice (rice (Oryza saliva); [28]): 0 | Plant response rating, Rice (rice (Oryza saliva); [29]): 0 | Plant response rating, Cocklebur [16, 28]: 0 | Plant response rating, Cocklebur [16, 29]: 0 | Plant response rating, Crabgrass [17, 29]: 0 | Plant response rating, Velvetleaf [18, 28]: 0 | Plant response rating, Velvetleaf [18, 29]: 0 | Plant response rating, Foxtail, Giant [19, 28]: 100 | Plant response rating, Foxtail, Giant [19, 29]: 70 | Plant response rating, Corn (corn (Zea mays) [20]; [28]): 0 | Plant response rating, Corn (corn (Zea mays) [20]; [29]): 0 | Plant response rating, Surinam grass [21, 28]: 0 | Plant response rating, Surinam grass [21, 29]: 0 | Plant response rating, Morningglory [22, 28]: 0 | Plant response rating, Morningglory [22, 29]: 0 | Plant response rating, Barnyardgrass [23, 28]: 100 | Plant response rating, Barnyardgrass [23, 29]: 0 | Plant response rating, Sunflower (Sunflower [24]; Rate 125 g/ha): 40

CC(C)Oc1cccc(N2CCC(n3ccc(C(C)(C)C)n3)C2=O)c1 (stereo not drawn) [Compound 70]
Plant response rating, Pigweed [1, 26]: 0 | Plant response rating, Pigweed [1, 27]: 0 | Plant response rating, Lambsquarters [2, 26]: 0 | Plant response rating, Lambsquarters [2, 27]: 0 | Plant response rating, Cocklebur [3, 26]: 0 | Plant response rating, Cocklebur [3, 27]: 0 | Plant response rating, Crabgrass [4, 26]: 0 | Plant response rating, Crabgrass [4, 27]: 0 | Plant response rating, Blackgrass [5, 26]: 0 | Plant response rating, Blackgrass [5, 27]: 0 | Plant response rating, Velvetleaf [6, 26]: 0 | Plant response rating, Velvetleaf [6, 27]: 0 | Plant response rating, Foxtail, Giant [7, 26]: 0 | Plant response rating, Foxtail, Giant [7, 27]: 0 | Plant response rating, Wild Oat (wild oat (Avena fatua); [26]): 0 | Plant response rating, Wild Oat (wild oat (Avena fatua); [27]): 0 | Plant response rating, Corn (corn (Zea mays) [8]; [26]): 0 | Plant response rating, Corn (corn (Zea mays) [8]; [27]): 0 | Plant response rating, Surinam grass [9, 26]: 0 | Plant response rating, Surinam grass [9, 27]: 0 | Plant response rating, Morningglory [10, 26]: 30 | Plant response rating, Morningglory [10, 27]: 30 | Plant response rating, Wheat [11, 26]: 0 | Plant response rating, Wheat [11, 27]: 0 | Plant response rating, Barnyardgrass [12, 26]: 0 | Plant response rating, Barnyardgrass [12, 27]: 0 | Flatsedge plant response rating ([13]; Rate 250 g/ha): 90 | Flatsedge plant response rating ([13]; Rate 500 g/ha): 90 | Plant response rating, Flatsedge ([13]; Rate 62 g/ha): 90 | Plant response rating (0 to 100), Sunflower (Sunflower [14]; Rate 500 g/ha): 60 | Plant response rating, Pigweed [15, 28]: 100 | Plant response rating, Pigweed [15, 30]: 100 | Plant response rating, Lambsquarters [25, 28]: 100 | Plant response rating, Lambsquarters [25, 30]: 100 | Plant response rating, Rice (rice (Oryza saliva); [28]): 30 | Plant response rating, Rice (rice (Oryza saliva); [30]): 30 | Plant response rating, Cocklebur [16, 28]: 0 | Plant response rating, Cocklebur [16, 30]: 0 | Plant response rating, Crabgrass [17, 28]: 100 | Plant response rating, Crabgrass [17, 30]: 90 | Plant response rating, Velvetleaf [18, 28]: 0 | Plant response rating, Velvetleaf [18, 30]: 0 | Plant response rating, Foxtail, Giant [19, 28]: 100 | Plant response rating, Foxtail, Giant [19, 30]: 90 | Plant response rating, Surinam grass [21, 28]: 0 | Plant response rating, Surinam grass [21, 30]: 0 | Plant response rating, Morningglory [22, 28]: 80 | Plant response rating, Morningglory [22, 30]: 20 | Plant response rating, Sunflower (Sunflower [24]; Rate 125 g/ha): 20 | Plant response rating, Sunflower (Sunflower [24]; Rate 250 g/ha): 60

CCC(CC)c1ccn(C2CCN(c3cccc(OC(C)C)c3)C2=O)n1 (stereo not drawn) [Compound 84]
Plant response rating, Pigweed [1, 26]: 60 | Plant response rating, Pigweed [1, 27]: 70 | Plant response rating, Lambsquarters [2, 26]: 50 | Plant response rating, Lambsquarters [2, 27]: 60 | Plant response rating, Cocklebur [3, 26]: 10 | Plant response rating, Cocklebur [3, 27]: 20 | Plant response rating, Crabgrass [4, 26]: 0 | Plant response rating, Crabgrass [4, 27]: 10 | Plant response rating, Blackgrass [5, 26]: 0 | Plant response rating, Blackgrass [5, 27]: 0 | Plant response rating, Velvetleaf [6, 26]: 0 | Plant response rating, Velvetleaf [6, 27]: 10 | Plant response rating, Foxtail, Giant [7, 26]: 0 | Plant response rating, Foxtail, Giant [7, 27]: 10 | Plant response rating, Wild Oat (wild oat (Avena fatua); [26]): 0 | Plant response rating, Wild Oat (wild oat (Avena fatua); [27]): 10 | Plant response rating, Corn (corn (Zea mays) [8]; [26]): 0 | Plant response rating, Corn (corn (Zea mays) [8]; [27]): 0 | Plant response rating, Surinam grass [9, 26]: 0 | Plant response rating, Surinam grass [9, 27]: 10 | Plant response rating, Morningglory [10, 26]: 10 | Plant response rating, Morningglory [10, 27]: 30 | Plant response rating, Wheat [11, 26]: 0 | Plant response rating, Wheat [11, 27]: 0 | Plant response rating, Barnyardgrass [12, 26]: 0 | Plant response rating, Barnyardgrass [12, 27]: 80 | Flatsedge plant response rating ([13]; Rate 250 g/ha): 100 | Flatsedge plant response rating ([13]; Rate 500 g/ha): 100 | Plant response rating, Flatsedge ([13]; Rate 62 g/ha): 90 | Plant response rating, Flatsedge ([13]; Rate 125 g/ha): 90 | Plant response rating (0 to 100), Sunflower (Sunflower [14]; Rate 500 g/ha): 30 | Plant response rating, Pigweed [15, 28]: 100 | Plant response rating, Pigweed [15, 30]: 100 | Plant response rating, Rice (rice (Oryza saliva); [28]): 100 | Plant response rating, Rice (rice (Oryza saliva); [30]): 0 | Plant response rating, Cocklebur [16, 28]: 0 | Plant response rating, Cocklebur [16, 30]: 0 | Plant response rating, Crabgrass [17, 28]: 100 | Plant response rating, Crabgrass [17, 30]: 100 | Plant response rating, Velvetleaf [18, 28]: 0 | Plant response rating, Velvetleaf [18, 30]: 0 | Plant response rating, Foxtail, Giant [19, 28]: 100 | Plant response rating, Foxtail, Giant [19, 30]: 100 | Plant response rating, Corn (corn (Zea mays) [20]; [28]): 20 | Plant response rating, Corn (corn (Zea mays) [20]; [30]): 0 | Plant response rating, Surinam grass [21, 28]: 100 | Plant response rating, Surinam grass [21, 30]: 80 | Plant response rating, Morningglory [22, 28]: 0 | Plant response rating, Morningglory [22, 30]: 0 | Plant response rating, Barnyardgrass [23, 28]: 100 | Plant response rating, Barnyardgrass [23, 30]: 100 | Plant response rating, Sunflower (Sunflower [24]; Rate 250 g/ha): 30
